From patent US20190142860A1, “NUCLEIC ACID BASED TIA-1 INHIBITORS” (Aquinnah Pharmaceuticals, Inc., priority 2015, published 2019)
Entries after “also recorded” stand apart in the source; their conditions may differ.

Legend:
[1] = target: microtubules (mouse brain); test: microtubule pelleting in RAB buffer / immunoblot, mouse cortex
[2] = test system: primary hippocampal neurons; test: Dendrite length of primary hippocampal neurons (MAP2, NeuronJ); type: cell-based, mouse; conditions: Tau−/− and TIA1−/− neurons, WT or P301L tau ± TIA1, DIV21; puromycin 5 μg/ml, cycloheximide 10 μg/ml
From the text: SG density and dendritic processes were quantified using Image J (using ImageJ plug-ins NeuronJ, tracing MAP2 positive processes for dendritic measurements). Granule movement and formation was quantified using Bitplane Imaris Track software (Imaris).
Measurements of dendritic processes were done using ImageJ plug-ins NeuronJ. Using the software to trace MAP2 positive processes of individual cells yields a pixel measurement that can then be back calculated to micrometers using the microscope scaling parameters.

[3] = test system: tau granules in primary hippocampal neurons; test: Tau granules in dendrites of primary tau−/− hippocampal neurons; type: cell-based, mouse; conditions: WT or P301L tau ± TIA1, treated at DIV21, cycloheximide 10 μg/ml
Protocol: Primary hippocampal cultures were generated from P0 pups from C57Bl/6 WT, TIA1 −/−, or tau −/− mice. The hippocampus was dissected out in Hank's Balanced Salt Solution buffered with HEPES and PenStrep, and dissociated with 0.125% trypsin for 15 min at 37° C., followed by trituration. Dissociated cells were plated on plates of coverslips pre-coated with Poly-D lysine (100 μg/mL, Sigma). Neurons were grown for 21 days in Neurobasal medium supplemented with B-27 (Invitrogen)
At DIV3 neurons were transduced with AAV9-TIA1-mRFP or AAV9-mRFP virus (MOI 20). At DIV7 neurons were transduced with AAV1-WT tau-V5 or AAV1-P301L tau-V5 virus (MOI 20). Neurons were fixed for immunolabeling and confocal microscopy in 4% PFA, or lysed in via sonication in PBS with protease and phosphatase inhibitors.
Granule count neurons: Quantifications of granule counts and area in primary neurons was done in ImageJ by using a free-hand tool to outline the neuron, thresholding the image, creating a mask over the nucleus, and using the particle analyzer tool.

[4] = test system: stress granules (SGs) in HT22 cells; test: Stress granule / tau granule formation in HT22 cells expressing tau and TIA1; type: cell-based, mouse; conditions: for formation of tau granules: neuronal cell lines
Protocol: HT22 cells were transfected using Lipofectamine (Invitrogen), incubated 24 hours, and treated after 24 hrs (25 uM salubrinal, 5 μg/ml puromycin, 10 μg/ml cycloheximide). At 48 hours the cells were fixed in 4% PFA.
HT22 cells were maintained in DMEM (4.5 g glucose/L) media supplemented with 10% fetal bovine serum, lx PenStrep (Invitrogen), lx L-Glutamine (Invitrogen), and 1× non-essential amino acids. Cells were passaged twice a week 1:5. Cells were seeded on 18 mm poly-D-lysine coated coverslips in 12-well plates (75,000/coverslip) one day prior to transfection in […] media (DMEM, 10% FBS). Cells were transfected at 1:2 ratio DNA:Lipofectamine (Invitrogen), delivering 2 μg total DNA per well. Lipofectamine in OptiMEM (Invitrogen) is incubated for 5 min prior to the addition of the DNA/OptiMEM. The transfection mixture is then allowed to incubate for 20 min at room temperature prior to being added to the cells. 500 μL of media is removed and 500 μL of transfection mixture is added dropwise to each well. Cells were incubated 24 hours, after which the addition of 25 μM salubrinal may be added to half of the plates and allowed to incubate for 24 hours. At 48 hours post-transfection, the cells were fixed in 4% PFA and stored in PBS.
Granule count cells: SG density was quantified using Image J software by calculating the number of puncta […] per 63× frame controlled for the number of cells. This was done by thresholding images, and using the analyze particle functionality. Quantifications of granule counts and area in primary neurons was done in ImageJ by using a free-hand tool to outline the neuron, thresholding the image, creating a mask over the nucleus, and using the particle analyzer tool.

caspase-3 = test: Caspase cleavage (Caspase-Glo 3/7) in neurons co-transduced with TIA1 and tau; type: cell-based, mouse; conditions: salubrinal 25 μM
Protocol: Caspase 3/7 cleavage was quantified with the Caspase-Glo 3/7 Assay kit, Promega. Apoptosis detected DNA fragmentation (TiterTACS Colorimetric Apoptosis Detection kit, Trevigen).
Caspase 3/7 cleavage was quantified with the Caspase-Glo 3/7 Assay kit, Promega. Apoptosis was analyzed by quantifying DNA fragmentation (TiterTACS Colorimetric Apoptosis Detection kit, Trevigen).

human 1N4R tau with the P301S mutation (PS19 transgene) (from UniProt P10636 2-412)
fold increase in the ratio of MT-bound (P) to unbound (S) tau, P301S TIA1+/- against P301S TIA1+/+ [1]: 3 fold

COc1ccc(C[C@H](N)C(=O)N[C@H]2[C@@H](O)[C@H](n3cnc4c(N(C)C)ncnc43)O[C@@H]2CO)cc1 [puromycin]
dendrite length [2]: potentiated the decrease in dendritic length
tau granules in dendritic processes (Tau13, MAP2 imaging) [3]: larger and more abundant tau granules
formation of tau granules [4]: stimulated formation of tau granules

O=C(/C=C/c1ccccc1)NC(NC(=S)Nc1cccc2cccnc12)C(Cl)(Cl)Cl (centres unmarked) [salubrinal]
levels of cleaved caspase-3 (caspase cleavage) (caspase-3): potentiated
SG levels ([4]; HT22 cells expressing tau, salubrinal 25 uM): enhanced SG levels
number of SGs ([4]; HT22 cells, P301L, P301L PMIM or P301L PNULL tau ± TIA1-RFP, salubrinal 25 μM): increased the number of SGs in all conditions

C[C@@H]1C[C@@H]([C@H](O)CC2CC(=O)NC(=O)C2)C(=O)[C@@H](C)C1 [cycloheximide]
dendrite length [2]: did not affect dendrite length
tau granules in dendritic processes (Tau13, MAP2 imaging) [3]: spread diffusely with only small, less defined granules apparent
formation of tau/SG complexes (tau+ SGs) ([4]; HT22 cells over-expressing TIA1 and WT or P301L tau, arsenite, cycloheximide 10 μg/ml): prevented formation of the tau/SG complexes; also recorded: reversed
formation of tau granules [4]: prevented formation of tau granules
